From publication PMC10046071 (Biomedicines, 2023)
“And” between values parts separate entries of the source, which are not always exact repeats. Equal values may be shown once. Values belong to the compound of their own block, whether it stands above or below them.

How the values were obtained:
[1] = system: cytochrome P450 (CYP) 3A4; settings: cited from earlier work
[2] = Therapeutic drug monitoring: steady-state plasma pharmacokinetics in patients with CML; settings: for Tmax / Cmin / Cmax: steady state; for CL/F: apparent oral clearance
[3] = in vitro, human plasma; cited from earlier work
[4] = 4 CML patients
[5] = 493 subjects with CML; cited from earlier work
[6] = Stability of stock and working solutions and of extracted samples in the autosampler; assay type: physicochemical; settings: for stock solution stability, value for accuracy: DMSO stock, 10 days at −80 °C, versus freshly made, CV 3.7%; for working solution stability, value for accuracy: methanol, 8 h at room temperature, with or without light, CV 6.5%
Text: However, in the present study it has been conducted to study the stability of the stock and working solutions, freeze–thaw stability and autosampler stability. For all stability studies, the analyte stability should fall within 85−115% of the nominal concentration and was not allowed to deviate more than ±15% from the nominal concentration of all the QCs studied, as indicated in the Guidelines for Bioanalytical Methods Validation.
On the other hand, the stability of the working solutions in methanol on each test day was evaluated after 8 h at room temperature with light and in the dark.
The stability in the autosampler of the sample after the extraction process was evaluated at room temperature in the range between 2 and 8 h.

[7] = no reference given; cited from earlier work
[8] = cited from earlier work
[9] = Patient 1, 200–300 mg twice-daily oral
[10] = Patient 2, 200–300 mg twice-daily oral
[11] = Patient 3, 200–300 mg twice-daily oral
[12] = Patient 4, 200–300 mg twice-daily oral
[13] = 17 patients, 300 mg twice-daily
[14] = co-administered with a high-fat meal

t1/2 ([2]; Mean (SD) of 4 patients): 78.1 (75.4) h
Tmax ([2]; Mean (SD) of 4 patients): 2.3 (1.3) h
Cmin ([2]; Mean (SD) of 4 patients, 200–300 mg twice-daily): 1193.5 ng/mL and 1193.5 (414.7) ng/mL
CL/F ([2]; Patient 1): 2.8 L/h
t1/2 ([2]; Patient 1, elimination half-life): 25.1 h
Tmax ([2]; Patient 1): 1 h
Cmax [2, 9]: 3491.4 ng/mL
Cmin [2, 9]: 1633.9 ng/mL
CL/F ([2]; Patient 2): 1.9 L/h
t1/2 ([2]; Patient 2, elimination half-life): 69.3 h
Tmax ([2]; Patient 2): 2 h
Cmax [2, 10]: 1137.2 ng/mL
Cmin [2, 10]: 768.9 ng/mL
CL/F ([2]; Patient 3): 0.6 L/h
t1/2 ([2]; Patient 3, elimination half-life): 187.4 h
Tmax ([2]; Patient 3): 2 h
Cmax [2, 11]: 1988.4 ng/mL
Cmin [2, 11]: 1450.3 ng/mL
CL/F ([2]; Patient 4): 5.7 L/h
t1/2 ([2]; Patient 4, elimination half-life): 30.7 h
Tmax ([2]; Patient 4): 4 h
Cmax [2, 12]: 1103.5 ng/mL
Cmin [2, 12]: 920.7 ng/mL
Correlation of Cmin with Alkaline phosphatase (U/L) [4]: 0.7497
Correlation of Cmin with Haemaglobin (g/dL) [4]: −0.0319
Correlation of Cmin with Haematocrit (%) [4]: 0.0870
Correlation of Cmin with Leukocytes (×10^3/µL) [4]: −0.9194
Correlation of Cmin with Neutrophils (×10^3/µL) [4]: −0.0280
Correlation of Cmin with Platelet (×10^3/µL) [4]: −0.6949
Correlation of Cmin with Serum bilirrubin (mg/dL) [4]: −0.4013
Correlation of Cmin with Serum creatinine (g/dL) [4]: −0.1897
stock solution stability, value for accuracy [6]: less than 1.5%
degradation on the autosampler ([6]; extracted sample, up to 8 h, room temperature): < 8.3%
working solution stability, value for accuracy [6]: lower than 15.1%
Structure (SMILES): Cc1cn(-c2cc(NC(=O)c3ccc(C)c(Nc4nccc(-c5cccnc5)n4)c3)cc(C(F)(F)F)c2)cn1 [nilotinib, Nilotinib]
metabolizing enzymes [1]: metabolized primarily by cytochrome P450 (CYP) 3A4 isoform and with minor contributions from CYP2C8
plasma protein binding [3]: approximately 98%
Correlation of Cmin with ALT (U/L) [4]: −0.3552
Correlation of Cmin with AST (U/L) [4]: −0.0833
trough concentration (Cmin) associated with longer times to complete cytogenetic response and MMR and shorter time to progression [5]: < 469.4 ng/mL
aqueous solubility versus pH [7]: decreases significantly with increased pH
pKa [7]: 12.38
solubility [7]: good solubility in DMSO, organic solvents (methanol and acetonitrile) and acidic aqueous solution
Cmin at a steady state ([8]; 300 mg twice-daily, some clinical trials, no reference given): ~1123 ng/mL
Cmax at steady state [8, 13]: 1360 ng/mL
Cmin at steady state [8, 13]: 1123 ng/mL
interindividual variability in exposure (coefficient of variation) [8]: 32–64%
increase in the AUC [8, 14]: 50–82%
increase in the Cmax [8, 14]: up to 112%
mean area under the curve (AUC) ([8]; oral 400 mg twice daily): 19000 ± 9100 ng·h/mL
mean maximum plasma concentration (Cmax) ([8]; oral 400 mg twice daily): 2320 ± 1070 ng/mL

stock solution stability, value for accuracy [6]: less than 1.5%
working solution stability, value for accuracy [6]: lower than 15.1%
Structure (SMILES): Cc1cc(/C=C/C#N)cc(C)c1Nc1ccnc(Nc2ccc(C#N)cc2)n1 [rilpivirine]
